Publication PMC11091967, “Silicon-Rhodamine Functionalized Evocalcet Probes Potently and Selectively Label Calcium Sensing Receptors In Vitro, In Vivo, and Ex Vivo” (ACS Pharmacology & Translational Science, 2024)
Like-named read-outs stand apart in the source and are kept apart here. One block for each molecule: values may come before it.

Columns and labels:
[1] = biological target: T1, bovine serum albumin (BSA) (Bos taurus, UniProt P02769); test: Spectrofluorometric analysis of fluorogenicity upon BSA binding; format: physicochemical
T1 construct: purchased Sigma A7906
Experimental: (§1) Spectrofluorometric measurements were carried out by using the Agilent Cary Eclipse instrument. The voltage of the photomultiplier tube (PMT) was set to 600 for EvoSiR4 and EvoSiR6, and for 500 for SiR (4). Fluorescence of the probes was measured at concentrations ranging from 30 to 3000 nM in PBS containing various amounts of bovine serum albumin (BSA) (Sigma, A7906). Quenching experiments for the calculation of BSA binding were performed by adding a 1:1 molar ratio of tannic acid dissolved in ddH2O (Sigma, 403040) to the solution prior to measuring fluorescence.

[2] = Spectrofluorometric fluorescence in PBS and effect of pH; format: physicochemical; details: PBS
Experimental: as §1

[3] = system: hair cells of the neuromasts within the lateral line organ; test: In vivo labeling of neuromasts in zebrafish larvae; set-up: species or system zebrafish (Danio rerio); details: 4–6 dpf larvae, neuromasts identified with DiAsp
Experimental: For the neuromast labeling experiments, wild-type 4–6 days post fertilization (dpf) zebrafish larvae were incubated in 200 μL of E3 medium containing different doses of the SiR probes (500–5000 nM), 2.5 μM 4-(4-diethylaminostyryl)-1-methyl-pyridinium-iodid (DiAsp, Sigma, D3418), which specifically labels hair cells in the lateral line in 0.5% DMSO for 30 min (35). Next, washing and anesthesia were achieved by placing the larvae in a 35 mm imaging dish (MolBiTec, Imaging dish 1.5) which contained 500 μL of E3 medium with 168 mg/L MS-222 (Tricaine Mehanesulfonate, Sigma) for 10 min. After removing the solution, fish were side-embedded in the imaging dish using 500 μL of 0.75% low-melting temperature agarose (Sigma, A4018). Wide-field imaging was done using the Zeiss Axio Observer fluorescence microscope (LD A-Plan 10× objective, NA = 0.25), and confocal imaging was done using a Zeiss LSM 800 confocal fluorescence microscope (LD LCI Plan-Apochromat 25× objective, NA = 0.8).

human CaSR [4] = biological target: T2, human CaSR (Homo sapiens, UniProt P41180); test: In vitro labeling of CaSR expressing (HCAR) and control (CCL39) cells, fluorescence microscopy; format: cell-based
T2 construct: host or cells: CCL39 hamster lung fibroblasts stably transfected (HCAR), Geneticin selection
T2 sequence (P41180 20-1078): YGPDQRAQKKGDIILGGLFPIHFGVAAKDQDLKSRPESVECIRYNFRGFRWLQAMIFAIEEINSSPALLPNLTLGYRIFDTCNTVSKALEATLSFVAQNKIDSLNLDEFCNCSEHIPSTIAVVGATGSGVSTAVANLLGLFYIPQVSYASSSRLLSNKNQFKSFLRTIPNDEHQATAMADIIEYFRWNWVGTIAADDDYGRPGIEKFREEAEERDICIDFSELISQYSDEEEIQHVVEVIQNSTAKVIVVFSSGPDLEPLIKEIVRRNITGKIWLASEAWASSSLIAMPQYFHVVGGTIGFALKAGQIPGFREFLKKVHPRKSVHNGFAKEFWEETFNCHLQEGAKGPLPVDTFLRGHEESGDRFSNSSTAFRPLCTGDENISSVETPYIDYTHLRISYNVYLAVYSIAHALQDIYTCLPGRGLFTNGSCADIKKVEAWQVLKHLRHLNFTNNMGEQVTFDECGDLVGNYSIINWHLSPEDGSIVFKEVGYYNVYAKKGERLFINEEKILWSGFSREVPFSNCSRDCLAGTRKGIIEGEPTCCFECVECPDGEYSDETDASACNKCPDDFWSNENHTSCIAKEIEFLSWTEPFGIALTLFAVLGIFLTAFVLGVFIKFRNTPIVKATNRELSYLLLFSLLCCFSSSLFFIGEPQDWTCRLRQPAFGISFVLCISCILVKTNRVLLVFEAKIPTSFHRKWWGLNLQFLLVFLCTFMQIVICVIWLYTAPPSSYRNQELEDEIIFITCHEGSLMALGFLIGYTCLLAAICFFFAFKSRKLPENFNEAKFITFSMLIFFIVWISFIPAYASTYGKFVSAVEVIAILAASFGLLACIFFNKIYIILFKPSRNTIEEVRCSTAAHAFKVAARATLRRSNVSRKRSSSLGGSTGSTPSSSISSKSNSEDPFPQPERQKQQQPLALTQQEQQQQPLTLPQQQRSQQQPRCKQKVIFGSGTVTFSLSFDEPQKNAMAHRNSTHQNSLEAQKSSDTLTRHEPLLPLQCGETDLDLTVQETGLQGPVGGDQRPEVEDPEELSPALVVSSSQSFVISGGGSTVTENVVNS
Experimental: HCAR (CaSR+) and CCL39 (CaSR−) cells were kindly obtained from Novartis AG (Basel, Switzerland) and validated in house. The cells were seeded into μ-slide 18 well plates (ibidi, 81816) at a density of 5000 cells per well and were incubated for 24 h under standard culturing conditions. As our preliminary data indicated considerable nonspecific labeling of dying cells and cellular debris, a viability staining was introduced to ensure probe specificity.[29] Thus, after washing twice with HBSS, cells were incubated in 10 μM Calcein AM solution containing 0.02% Pluronic F-127 and 0.1% DMSO for 45 min at 37 °C. The solution was then removed and washed twice in HBSS before the addition of the HBSS solution containing the SiR probes. All probe solutions were protected from light exposure and contained 0.5% DMSO and various concentrations of BSA depending on the experiment. Incubation with the fluorescent probes was 20 min long, after which a single washing step was introduced with HBSS before imaging. Images of the cells (Calcein: FITC channel, SiR: Cy5 channel) were acquired with a Nikon Eclipse TI2 inverted wide-field fluorescence microscope using a 60× magnification oil immersion objective (Nikon CFI Plan Fluor, 60×, NA = 0.85). For each well, a minimum of 3 images were acquired. For each image, cells were segmented to generate labels on the FITC channel postacquisition using the deep neural network-based Cellpose package in Python 3.9 (model_type: cyto2, diameter: 200, flow_threshold: 0.4).[30] To normalize pixel intensity values across images, for each image, a background value was calculated by taking the average pixel intensity value of the pixels in which no cellular label was present and were negative for the EvoSiR label (triangle thresholding used). For each cell, the skewness of the value distribution and the mean of the Cy5 pixel intensities were calculated. The procedure for evaluating the long-term labeling (72 h) of EvoSiR probes on CCL39 and HCAR cells was similar, with the following modifications: images were retrieved using 10× magnification air objectives (Nikon CFI Plan Fluor 10×, NA = 0.3), in the neural network model, the diameter parameter was set to 30, and only the mean Cy5 pixel intensities per cell object were retrieved.

[5] = Photophysical characterization; format: physicochemical; set-up: λex / λem: unit not given here
human CaSR [6] = biological target: T2, human CaSR; test: FLIPR-based functional CaSR calcium assay in HCAR cells; format: cell-based; details: HCAR cells
Experimental: Hamster lung fibroblasts (CCL39, CaSR−) expressing the recombinant human CaSR (HCAR, CaSR+) and nontransected controls were kindly provided by Novartis AG and were kept in standard culturing conditions (37 °C, 5% CO2) in 1/2 DMEM (Roth, 9005.1)—1/2 F-12 (Sigma, N4888–500 mL) media containing 10% FBS. Media for the HCAR cells contained 500 μg/mL Geneticin as a selection antibiotic (Thermo Fisher, 10131035). Upon reaching 90–95% confluence, cells were detached and seeded into 96-well plates (PerkinElmer, 6005182) at a concentration of 35,000 cells per well and were incubated for 24 h before the experiment. For the functional CaSR calcium assay, cells were first washed twice with HBSS medium (Sigma, H6648), and were incubated in HBSS containing 5 μM Fluo-8 AM and 0.1 mM CaCl2 for 30 min at 37 °C. Calcium transients were measured upon addition of 0.5 mM CaCl2 with the FLIPR Tetra high-throughput cellular screening systems using the 470–495 nm LED excitation and 515–575 nm bandpass emission filters. Probe solutions contained 0.5% DMSO and were added to the cells 10 min prior to the measurement. dF/F0 values were calculated as a change in the peak fluorescence value of the transient for the first 200 data points normalized to the background fluorescence of the well. […] Both cells were washed with HBSS medium twice and then incubated for 10 min at 37 °C in HBSS medium containing 0.1% BSA in the presence or absence of 10 μM evocalcet. Upon the removal of media, cells were incubated in various concentrations of EvoSiR4 and EvoSiR6 in HBSS containing 0.1% BSA for 30 min at 37 °C and were subsequently washed 3 times with 0.1% BSA and resuspended in DMSO before the fluorometric measurement. The fluorescence was measured using a Tecan GENios pro microplate reader with the following parameters: λex = 612 nm, λem = 670 nm, gain = 50 AU. Data for the EvoSiR probes and the evocalcet competition is reported as CaSR-specific fluorescence, which was calculated by dividing the absolute fluorescence of the HCAR cells with the absolute fluorescence of the CCL39 cells for each concentration.

[7] = Fluorescence quenching of SiR probes by tannic acid, spectrofluorometer; format: physicochemical
Experimental: as §1

T1 sequence (P02769 25-607): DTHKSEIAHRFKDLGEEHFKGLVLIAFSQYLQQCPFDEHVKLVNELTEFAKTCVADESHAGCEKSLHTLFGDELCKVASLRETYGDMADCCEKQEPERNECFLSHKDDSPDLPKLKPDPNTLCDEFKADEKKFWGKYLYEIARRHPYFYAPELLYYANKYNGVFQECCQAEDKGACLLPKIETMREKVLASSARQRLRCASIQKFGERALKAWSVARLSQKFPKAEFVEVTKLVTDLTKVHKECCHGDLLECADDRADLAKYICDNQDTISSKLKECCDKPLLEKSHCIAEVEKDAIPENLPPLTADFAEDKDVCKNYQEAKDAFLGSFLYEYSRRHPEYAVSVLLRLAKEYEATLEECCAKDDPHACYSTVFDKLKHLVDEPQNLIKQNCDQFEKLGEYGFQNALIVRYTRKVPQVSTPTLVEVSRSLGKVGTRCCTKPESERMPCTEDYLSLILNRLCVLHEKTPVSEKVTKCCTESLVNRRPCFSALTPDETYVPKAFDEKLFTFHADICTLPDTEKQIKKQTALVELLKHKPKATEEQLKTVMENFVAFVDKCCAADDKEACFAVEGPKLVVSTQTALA

Molecule: Cc1cc(C(=O)NCCCCN)ccc1C1=C2C=CC(=[N+](C)C)C=C2[Si](C)(C)c2cc(N(C)C)ccc21 [SiR (4)]
increase in absolute fluorescence upon addition of 1% BSA ([1]; 1% BSA compared to PBS): no effect
change in absolute fluorescence in response to BSA ([1]; BSA 0.01–0.1%): no significant change
absolute fluorescence in PBS relative to EvoSiR4 and EvoSiR6 [2]: 10 times
normalized fluorescence of the neuromasts to the background fluorescence, mean and standard deviation [3]: 1.28 ± 0.41
fold increase in skewness of pixel intensity distribution, CaSR+ (HCAR) vs CaSR- (CCL39) cells (human CaSR [4]; 500 nM probe, 0.1% BSA): no significant difference
fluorescence lifetime τ [5]: 1.92 ± 0.733 ns
quantum yield Φ ([5]; 94% ethanol, 750 nM, relative to Rhodamine B): 0.347
λem ([5]; Table 1): 670
λex ([5]; Table 1): 650
extinction coefficient ε ([5]; absorbance at 150–1350 nM, 1 cm cuvette): 7051 M^–1 cm^–1

EC50 (human CaSR [6]; response to addition of 0.5 mM CaCl2, no BSA, read-out: EC50, positive allosteric modulation of CaSR activity): 0.101 ± 0.006 µM
Molecule: C[C@@H](N[C@H]1CCN(c2ccc(CC(=O)NCCCCNC(=O)OC(C)(C)C)cc2)C1)c1cccc2ccccc12 [compound 1]

EC50 (human CaSR [6]; dF/F0, read-out: EC50 of intracellular calcium release in response to extracellular calcium): 252 ± 10 µM
Molecule: [Ca+2].[Cl-].[Cl-] [extracellular calcium, CaCl2, reference compound]

increase in signal-to-noise ratio of EvoSiR4 labeling (human CaSR [4]; 100 nM tannic acid, CaSR+ cells labeled with 500 nM EvoSiR4): 40%
IC50 of quenching the fluorescence of EvoSiR probes and SiR (4) [7]: low nanomolar ranges
Molecule: tannic acid [reference compound]
